Results as given in patent publication US8501734B2, “Medical intervention in haematological cancers” (Oncotyrol-Center for Personalized Cancer Medicine GmbH …, priority 2008, dated 2013).

What was measured:
OPM2 cells = assay: Annexin V/PI apoptosis assay (FACS), OPM2 cells; type: cell-based; set-up: apoptosis induction: unit not given here; details: OPM2 cells
Procedure: (§1) After treatment adherent cells were trypsinized (as described before), and resuspended in corresponding full medium. Suspension cells or trypsinized adherent cells, supernatant and washing solution (1×PBS from washing before trypsinization) were pooled and then spun down (300 g for 3 min) washed in 2 ml and resuspended in 1000 of annexin V binding buffer and mixed with 2 μg/ml annexin V-Allophycocyanin (APC) (BD-Pharmingen, San Diego, Calif., USA) and 50 ng/ml of propidium iodide (PI; Sigma Aldrich). At least 10.000 cells were measured per sample using a Becton Dickinson FACSCalibur flow Cytometer (San Jose, Calif., USA). Percentage of Annexin V negative and PI negative cells were depicted in the figures. For the analysis of the pro-apoptotic activity of Imiquimod® in primary MM cells and non-malignant BMMCs, 5×10^5 cells BMMCs cells were treated with or without 40 μg/ml Imiquimod® for the indicated time periods. Cells were then harvested and washed twice with PBS. Detection of apoptotic cells was performed using the annexin V/PI assay according to manufacturers' instruction. Briefly, BMMCs were stained with a mixture of annexin V/FITC (Alexis Coorp., Laeufelfingen, Switzerland), propidium iodide (Sigma), anti-CD38-PE and anti-CD45-PC5 for 15 min at room temperature and immediately analyzed by flow cytometry. The percentages of viable cells (i.e. cells negative for annexin V/FITC and PI) within the MM (CD38^posCD45^low/absent) and non-MM fraction (CD38^neg/CD45^pos) were determined by flow cytometry.
Cells were cultured as described before and, treated with 40 μg/ml Imiquimod® or Gardiquimod® for 24 h, and apoptosis was assayed by AnnexinV/PI staining and FACS analysis.
(§2) Adherent cells were grown in 24-well plates to confluence and treated with 40 μg/ml Imiquimod® for 24 h. Cells were then trypsinized, suspended in full medium, stained for AnnexinV/PI and apoptosis was measured as described before. Suspension cells (250.000) were treated with 40 μg/ml Imiquimod® for 24 h, stained for Annexin/PI and apoptosis was measured as described above (Annexin V/Propidium Iodide apoptosis Assay).
(§3) OPM-2 and U266 cells (2.5×10^5 in 500 μl) were treated with either Imiquimod® alone (10 μg/500 μl), various inhibitors/drugs alone or with the combination of Imiquimod® and inhibitors for 24 or 48 h. In the controls the solvent of the drug has been added in appropriate amounts. Cells were then AnnexinV/PI stained and apoptosis measured as described before.

U266 cells = assay: Annexin V/PI apoptosis assay (FACS), U266 cells; type: cell-based; set-up: apoptosis induction: unit not given here; note: key: 0 for no; + for low; ++: + indicates the range of apoptosis induction; +++: + indicates the range of apoptosis induction; ++++ for very strong apoptosis induction
Procedure: as §1, §2, §3

Flk-1 = details: cited from earlier work
[1] = 24 h, Imi 20 μg/ml + drug 10 μM
[2] = 24 h, Imi 20 μg/ml + drug 50 μM
[3] = 48 h, Imi 20 μg/ml + drug 10 μM
[4] = 48 h, Imi 20 μg/ml + drug 50 μM

CC(C)c1cc(/C=C(\C#N)C(=O)NCCCc2ccccc2)cc(C(C)C)c1O [SU1498]
apoptosis induction (OPM2 cells; 24 h, Imi 20 μg/ml + drug 1 μM): + | apoptosis induction (OPM2 cells; [1]): ++ | apoptosis induction (OPM2 cells; [2]): ++ | apoptosis induction (OPM2 cells; 24 h, drug alone 1 μM): 0 | apoptosis induction (OPM2 cells; 24 h, drug alone 10 μM): + | apoptosis induction (OPM2 cells; 24 h, drug alone 50 μM): + | apoptosis induction (OPM2 cells; 48 h, Imi 20 μg/ml + drug 1 μM): ++ | apoptosis induction (OPM2 cells; [3]): +++ | apoptosis induction (OPM2 cells; [4]): +++ | apoptosis induction (OPM2 cells; 48 h, drug alone 1 μM): 0 | apoptosis induction (OPM2 cells; 48 h, drug alone 10 μM): + | apoptosis induction (OPM2 cells; 48 h, drug alone 50 μM): ++ | apoptosis induction (U266 cells; 24 h, Imi 20 μg/ml + drug 1 μM): + | apoptosis induction (U266 cells; [1]): ++ | apoptosis induction (U266 cells; [2]): ++ | apoptosis induction (U266 cells; 24 h, drug alone 1 μM): 0 | apoptosis induction (U266 cells; 24 h, drug alone 10 μM): + | apoptosis induction (U266 cells; 24 h, drug alone 50 μM): + | apoptosis induction (U266 cells; 48 h, Imi 20 μg/ml + drug 1 μM): ++ | apoptosis induction (U266 cells; [3]): ++ | apoptosis induction (U266 cells; [4]): ++ | apoptosis induction (U266 cells; 48 h, drug alone 1 μM): 0 | apoptosis induction (U266 cells; 48 h, drug alone 10 μM): ++ | apoptosis induction (U266 cells; 48 h, drug alone 50 μM): ++ | IC50 (Flk-1): 700 nM
